Where a SMILES comes first, the peptide text is derived from it. [ ]: non-standard residue; d: D form. The star is where a group is joined. Hydrocinnamoyl = O=C(CCc1ccccc1)*; Hyp = O=C(O)[C@@H]1C[C@@H](O)CN1; Propionyl = CCC(=O)*; Bn = c1ccc(C*)cc1; Ms = CS(=O)(=O)*; CH2Cl = ClC*
biological target: Prothrombin (Homo sapiens, UniProt P00734); assay: Inhibition of thrombin

| Structure (SMILES) | IC50 [nM] |
| --- | --- |
| CC(=O)N1C[C@H](OCCC(c2ccccc2)c2ccccc2)C[C@H]1C(=O)N[C@@H](CCCN=C(N)N)C(=O)CCl | 10 |
| CCN1C[C@H](OCc2ccccc2)C[C@H]1C(=O)N[C@@H](CCCNC(=N)N)C(=O)CCl | 8600 |
| CC(=O)N1C[C@H](CCc2ccccc2)C[C@H]1C(=O)N[C@@H](CCCN=C(N)N)C(=O)CCl | 40 |
| CC(=O)N1C[C@H](OCCCc2ccccc2)C[C@H]1C(=O)N[C@@H](CCCN=C(N)N)C(=O)CCl | 14 |
| CC(=O)N1C[C@@H](OCc2ccccc2)C[C@H]1C(=O)N[C@@H](CCCNC(=N)N)C(=O)CCl | 4600 |
| CC(=O)N1C[C@H](OCc2ccccc2)C[C@H]1C(=O)N[C@@H](CCCNC(=N)N)C(=O)CCl | 0.9 |

Next, values leading:

| IC50 [nM] | Structure (SMILES) |
| --- | --- |
| 1350 | CC(=O)N1CCC[C@H]1C(=O)N[C@@H](CCCN=C(N)N)C(=O)CCl (Ac-Pro-Arg-CH2Cl) |
| 31.7 | N=C(N)NCCC[C@H](NC(=O)[C@@H]1C[C@@H](OCc2ccccc2)CN1C(=O)CCc1ccccc1)C(=O)CCl (Hydrocinnamoyl-[Hyp](Bn)-Arg-CH2Cl) |
| 24 | CS(=O)(=O)N1C[C@H](OCc2ccccc2)C[C@H]1C(=O)N[C@@H](CCCNC(=N)N)C(=O)CCl (Ms-[Hyp](Bn)-Arg-CH2Cl) |
| 1.5 | N=C(N)NCCC[C@H](NC(=O)[C@@H]1CCCN1C(=O)[C@H](N)Cc1ccccc1)C(=O)CCl |
| 7.2 | N=C(N)NCCC[C@H](NC(=O)[C@@H]1C[C@H](OCc2ccccc2)CN1C(=O)[C@H](N)Cc1ccccc1)C(=O)CCl |
| 21.6 | CCCCO[C@@H]1C[C@@H](C(=O)N[C@@H](CCCNC(=N)N)C(=O)CCl)N(C(C)=O)C1 |
| 4.9 | CC(=O)N1C[C@H](OCC2CCCCC2)C[C@H]1C(=O)N[C@@H](CCCN=C(N)N)C(=O)CCl |
| 3 | NC(N)=NCCC[C@H](NC(=O)[C@@H]1C[C@@H](OCc2ccccc2)CN1C(=O)[C@H](N)Cc1ccccc1)C(=O)CCl |
| 13 | CCC(=O)N1C[C@H](OCc2ccccc2)C[C@H]1C(=O)N[C@@H](CCCN=C(N)N)C(=O)CCl (Propionyl-[Hyp](Bn)-Arg-CH2Cl) |
